Measured values as given in patent publication US12624034B2, “Non-covalent modifiers of AKT1 and uses thereof” (Terremoto Biosciences, Inc., priority 2023, dated 2026).
Where two headings read alike, the source gives them in different places.

Experiments:
AKT1 WT = target: T1, AKT1 WT (Homo sapiens, UniProt P31749); assay: Live cell AKT1 WT target engagement by NanoBRET competitive probe displacement in HEK293 cells; format: binding; conditions: 2 h at 37° C., read-out: AKT1 WT IC50
T1 construct: expressed in transfected cells; host or cells: HEK293
T1 sequence (P31749 whole entry): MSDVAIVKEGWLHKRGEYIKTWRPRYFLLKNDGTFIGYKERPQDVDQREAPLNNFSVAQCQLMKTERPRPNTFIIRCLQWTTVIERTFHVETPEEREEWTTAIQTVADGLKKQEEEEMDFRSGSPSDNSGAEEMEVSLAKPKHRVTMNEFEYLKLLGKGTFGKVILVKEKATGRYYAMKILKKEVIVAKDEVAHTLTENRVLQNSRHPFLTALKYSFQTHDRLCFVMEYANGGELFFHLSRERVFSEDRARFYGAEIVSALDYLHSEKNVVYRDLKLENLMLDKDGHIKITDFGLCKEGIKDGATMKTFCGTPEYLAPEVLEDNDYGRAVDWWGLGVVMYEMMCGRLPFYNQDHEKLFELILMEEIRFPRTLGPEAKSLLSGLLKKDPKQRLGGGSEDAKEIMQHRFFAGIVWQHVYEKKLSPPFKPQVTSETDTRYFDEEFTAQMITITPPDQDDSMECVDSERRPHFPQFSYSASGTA

AKT2 = target: T2, AKT2 (Homo sapiens, UniProt P31751); assay: Live cell AKT2 target engagement by NanoBRET competitive probe displacement in HEK293 cells; format: binding; conditions: 2 h at 37° C., read-out: AKT2 IC50
T2 construct: expressed in transfected cells; host or cells: HEK293
T2 sequence (P31751 whole entry): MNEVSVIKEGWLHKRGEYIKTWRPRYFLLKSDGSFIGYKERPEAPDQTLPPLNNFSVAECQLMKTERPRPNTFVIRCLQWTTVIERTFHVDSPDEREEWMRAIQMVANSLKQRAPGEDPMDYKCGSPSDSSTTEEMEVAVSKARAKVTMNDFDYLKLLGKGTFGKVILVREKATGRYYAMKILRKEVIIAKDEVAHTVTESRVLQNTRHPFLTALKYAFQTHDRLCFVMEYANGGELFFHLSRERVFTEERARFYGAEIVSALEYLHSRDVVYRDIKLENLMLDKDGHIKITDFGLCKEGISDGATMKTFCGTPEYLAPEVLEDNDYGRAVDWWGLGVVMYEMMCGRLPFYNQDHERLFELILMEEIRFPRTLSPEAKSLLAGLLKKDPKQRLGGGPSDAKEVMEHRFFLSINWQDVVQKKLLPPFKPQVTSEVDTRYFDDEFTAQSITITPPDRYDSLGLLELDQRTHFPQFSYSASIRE

AKT1 E17K = target: T3, AKT1 E17K (Homo sapiens, UniProt P31749, E17K); assay: Live cell AKT1 E17K target engagement by NanoBRET competitive probe displacement in HEK293 cells; format: binding; conditions: 2 h at 37° C.
T3 construct: expressed in transfected cells; host or cells: HEK293
T3 sequence (P31749 whole entry E17K): as the sequence (P31749 whole entry) above, with E17K counted along it
Method in brief: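 Transfect HEK293 overnight with kinase-NanoLuc fusion plasmid; add compound series and ~EC50 fluorescent ATP-competitive tracer; incubate 2 h, 37° C; add luciferase substrate and extracellular inhibitor; read 460/600 nm; IC50 by Hill fit of BRET ratio.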

[1] = system: LAPC4 prostate cancer cells, which express the AKT1 E17K allele; assay: Antiproliferative effects in LAPC4 cells (CellTiter Glo, 72 h); format: cell-based; conditions: Homo sapiens, LAPC4, 72 h, read-out: LAPC4 proliferation IC50
Method in brief: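 Seed 1,000 cells/well in IMDM/12% FBS/1% P/S; add compound dilutions (DMSO); incubate 72 h; read intracellular ATP with CellTiter Glo; fit luminescence to log(inhibitor)-response Hill curve for IC50.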

[2] = NanoBRET live cell target engagement, HEK293 cells
[3] = NanoBRET competitive probe displacement, live HEK293 cells

Row | SMILES | IC50 (AKT1 WT; [2]) [µM] | IC50 (AKT2; [2]) [µM] | IC50 (AKT1 E17K; [2]) [µM] | IC50 [1] [µM] | IC50 (AKT1 WT; [3]) [µM] | IC50 (AKT2; [3]) [µM] | IC50 (AKT1 E17K; [3]) [µM]
1 | Nc1ncccc1-c1nc2ccc(-n3cccn3)nc2n1-c1ccc2c(c1)CC[C@@H]2NC(=O)c1ccc(-n2cccn2)nc1 [Compound 54, (S)—N-(5-(2-(2-aminopyridin-3-yl)-5-(1H-pyrazol-1-yl)-3H-imidazo[4,5-b]pyridin-3-yl)-2,3-dihydro-1H-inden-1-yl)-6-(1H-pyrazol-1-yl)nicotinamide] | 0.012 | 0.0107 | 0.0174 | 0.207 | – | – | –
2 | Cn1ccc(N2CCC(N[C@H]3CCc4cc(-n5c(-c6cccnc6N)nc6ccc(-n7cccn7)nc65)ccc43)CC2)n1 [Compound 276] | 0.0474 | 1.2 | > 1 | > 10 | – | – | –
3 | Nc1ncccc1-c1nc2ccc(-n3ccc(F)n3)nc2n1-c1ccc2c(c1)CC[C@@H]2NC1CCN(c2ccccn2)CC1 [Compound 367] | 0.0744 | 2.52 | 0.735 | 6.33 | – | – | –
4 | CN(C)c1ccc(F)c(C(=O)N[C@H]2CCc3cc(-n4c(-c5cccnc5N)nc5ccc(-n6cccn6)nc54)ccc32)c1 [Compound 7, N—{(S)-5-[2-(2-amino-3-pyridyl)-5-(1-pyrazolyl)-3H-1,3,4-triazainden-3-yl]-1-indanyl}5-(dimethylamino)-2-fluorobenzamide] | 0.00729 | 0.118 | 0.32 | 2.6 | – | – | –
5 | Nc1ncccc1-c1nc2ccc(-n3cccn3)nc2n1-c1ccc2c(c1)CC[C@@H]2n1cc(C2CC2(F)F)nn1 (some centres unmarked) [Compound 362] | 0.0361 | 1.27 | 0.138 | 6.96 | – | – | –
6 | COCCOc1ccn(-c2ccc3nc(-c4cccnc4N)n(-c4ccc5c(c4)CC[C@@H]5NC4CCN(C(=O)C5CC5)CC4)c3n2)n1 [Compound 504] | – | – | – | 4.41 | 0.0143 | 0.665 | > 1

Second part, the molecule after the results:

Row | IC50 (AKT1 WT; [2]) [µM] | IC50 (AKT2; [2]) [µM] | IC50 (AKT1 E17K; [2]) [µM] | IC50 [1] [µM] | IC50 (AKT1 WT; [3]) [µM] | IC50 (AKT2; [3]) [µM] | IC50 (AKT1 E17K; [3]) [µM] | SMILES
7 | 0.00475 | 0.0497 | 0.0726 | 0.921 | – | – | – | Nc1ncccc1-c1nc2ccc(-n3cccn3)nc2n1-c1ccc2c(c1)CC[C@@H]2NC(=O)c1ccc(C(F)F)cc1 [Compound 61, (S)—N-(5-(2-(2-aminopyridin-3-yl)-5-(1H-pyrazol-1-yl)-3H-imidazo[4,5-b]pyridin-3-yl)-2,3-dihydro-1H-inden-1-yl)-4-(difluoromethyl)benzamide]
8 | 0.00461 | 0.0466 | 0.39 | 1.2 | – | – | – | COc1ncc(C(=O)N[C@H]2CCc3cc(-n4c(-c5cccnc5N)nc5ccc(-n6cccn6)nc54)ccc32)cn1 [Compound 23, (S)—N-(5-(2-(2-aminopyridin-3-yl)-5-(1H-pyrazol-1-yl)-3H-imidazo[4,5-b]pyridin-3-yl)-2,3-dihydro-1H-inden-1-yl)-2-methoxypyrimidine-5-carboxamide]
9 | 0.0584 | 1.72 | 0.81 | > 10 | – | – | – | Nc1ncccc1-c1nc2ccc(-n3cccn3)nc2n1-c1ccc2c(c1)CC[C@@H]2NC1CCN(C(=O)C2(F)CC2)CC1 [Compound 370]
10 | 0.137 | 4.56 | > 1 | > 10 | – | – | – | Nc1ncccc1-c1nc2ccc(-n3cccn3)nc2n1-c1ccc2c(c1)CC[C@@H]2NC(=O)Cc1ccn[nH]1 [Compound 51, (S)—N-(5-(2-(2-aminopyridin-3-yl)-5-(1H-pyrazol-1-yl)-3H-imidazo[4,5-b]pyridin-3-yl)-2,3-dihydro-1H-inden-1-yl)-2-(1H-pyrazol-5-yl)acetamide]
11 | 0.175 | 7.72 | > 1 | > 10 | – | – | – | Nc1ncccc1-c1nc2ccc(-n3cccn3)nc2n1-c1ccc2c(c1)CC[C@@H]2NC(=O)C1CC1 [Compound 37, N-[(1S)-5-[2-(2-aminopyridin-3-yl)-5-(pyrazol-1-yl)imidazo[4,5-b]pyridin-3-yl]-2,3-dihydro-1H-inden-1-yl]cyclopropanecarboxamide]
